Data: US9447063B2, “Disubstituted adamantyl derivative or pharmaceutically acceptable salt thereof, production method for same, and pharmaceutical composition for suppressing cancer metastasis comprising same as active ingredient” (KOREA RESEARCH INSTITUTE OF BIOSCIENCE AND BIOTECHNOLOGY, priority 2012, dated 2016)

Columns and labels:
[1] = test system: human colorectal carcinoma cell line HCT116; assay: In vivo inhibition of cancer cell proliferation in the mouse by intraperitoneal administration (HCT116 transplant); set-up: species or system Balb/c nude mice; settings: 30 mg/kg intraperitoneal; for Weight changes over the administration time: nude mice
Experimental: First, female Balb/c nude mice (6 weeks old) were administered with the compound prepared in Example 2 via intraperitoneal injection. […] One week later, any change in the tumor size was observed by comparing the volume of the first formed tumor and the volume measured one week after. On the last day, the tumor was weighed. […] All the values of each measurement title were examined by t-test to investigate the statistical significance of the values obtained from the non-treated group, the group treated with the compound of Example 2, and the positive control group.

B16F10 melanoma cells = assay: Inhibition of metastasis in vivo in the test mouse (luciferase imaging); set-up: species or system C57BL/6 mice; settings: for Weight changes over the administration time: C57BL/6 mice
Experimental: To evaluate the inhibition effect of the compound on metastasis, C57BL/6 mice were transplanted with B16F10 melanoma cells (2×10^6 cells/ml) expressing luciferase via intravenous injection (0.2 ml, 4×10^5 cells/mouse). One hour later, 50 μl of luciferin was administered to each mouse at the concentration of 15 mg/ml via intraperitoneal injection. Then, the compound prepared in Example 2 of the invention was intraperitoneally administered at the concentration of 50 mg/kg 13 times. […] The image of the mouse was photographed every day for 14 days with a live animal imaging system (PHOTON IMAGER, Biospace). On the last day of the experiment, the mouse was sacrificed by using CO2 gas. The lung was extracted from the mouse, and lung metastasis of the skin cancer cells was confirmed. To investigate toxicity, weight and other general symptoms were observed during the experimental period. At this time, all the values of each measurement title were examined by t-test for the statistical significance of the values obtained from the non-treated group, the group treated with the compound of Example 2, and the positive control group. The results are shown in Table 3, Table 4, FIG. 9, and FIG. 10.

In the case of CCN(CC)CCNC(=O)c1c(C)[nH]c(/C=C2\C(=O)Nc3ccc(F)cc32)c1C [sunitinib], the “Inhibition rate of tumor growth (tumor volume)” value ([1]; 0 day) is reported as “(0%)”, the “Tumor volume over the administration time (Vt − Vo)” value ([1]; 0 day) is reported as 0.0 ± 0.0 and the “Weight changes over the administration time” value (“Weight changes” for short) ([1]; 0 day) is reported as 100.0 ± 0.0%. For the same compound, the “Inhibition rate of tumor growth (tumor volume)” value ([1]; 2 days) was “(31.7%)”, the “Weight changes” value ([1]; 2 days) was 100.5 ± 1.4% and the “Weight changes” value ([1]; 4 days) was 100.7 ± 2.0%. For the same compound, the “Tumor weight at final day” value ([1]; 7 days) was 1064.9 ± 130.9 mg, the “Weight changes” value ([1]; 7 days) was 100.8 ± 3.3% and the “Weight changes” value (B16F10 melanoma cells; 0 day) was 100.0 ± 0.0%. The “Image signals over the administration time” value (B16F10 melanoma cells; 0 day, live animal imaging) was 857.2 ± 679.3 photons/s/sr, the “Weight changes” value (B16F10 melanoma cells; 2 days) was 100.9 ± 2.2% and the “Weight changes” value (B16F10 melanoma cells; 4 days) was 102.9 ± 2.0%. For the same compound, the “Image signals over the administration time” value (B16F10 melanoma cells; 4 days, live animal imaging, Example 2 50 mg/kg, sunitinib 30 mg/kg) was 222.0 ± 146.1 photons/s/sr, the “Weight changes” value (B16F10 melanoma cells; 7 days) was 103.0 ± 2.8% and the “Weight changes” value (B16F10 melanoma cells; 9 days) was 106.0 ± 3.1%. For the same compound, the “Inhibition rate of tumor metastasis (image signals)” value (B16F10 melanoma cells; 9 days, live animal imaging) was “(19.9%)”, the “Image signals over the administration time” value (B16F10 melanoma cells; 9 days, live animal imaging, Example 2 50 mg/kg, sunitinib 30 mg/kg) was 47.5 ± 10.7 photons/s/sr and the “Weight changes” value (B16F10 melanoma cells; 11 days) was 105.4 ± 2.9%. For the same compound, the “Weight changes” value (B16F10 melanoma cells; 14 days) was 107.7 ± 3.3%, the “Image signal at final day” value (B16F10 melanoma cells; 14 days, extracted lung imaging, Example 2 50 mg/kg, sunitinib 30 mg/kg) was 21738.7 ± 14939.0 and the “Image signals over the administration time” value (B16F10 melanoma cells; 14 days, live animal imaging, Example 2 50 mg/kg, sunitinib 30 mg/kg) was 13084.0 ± 8931.2 photons/s/sr.
